Values belong to the compound of their own block, whether it stands above or below them.
Tested on: NCI-H1341 complex spheroids, percent test/control
Experiment: Anticancer human tumor NCI-H1341 cell line growth inhibition [AhR];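 note: spheroids exposed to agents for seven days before readout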
Settings: for IC50: curve of first compound; for viability, T/C: stronger effect = lower value
Procedure, shortened: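 Complex tumor spheroids co-cultured with HUVEC and human MSC stroma; AhR antagonists tested in combination with standard-of-care and investigational agents. Top concentration at or near clinical Cmax (else 10 microM), half-log dilutions; growth expressed as percent test/control.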

[1] = second compound 0.1 µM, first compound 0.00949 µM
[2] = second compound 0.1 µM, first compound 0.03 µM
[3] = second compound 0.1 µM, first compound 0.0949 µM
[4] = second compound 0.1 µM, first compound 0.3 µM
[5] = second compound 0.316 µM, first compound 0.00949 µM
[6] = second compound 0.316 µM, first compound 0.03 µM
[7] = second compound 0.316 µM, first compound 0.0949 µM
[8] = second compound 0.316 µM, first compound 0.3 µM
[9] = second compound 1 µM, first compound 0.00949 µM
[10] = second compound 1 µM, first compound 0.03 µM
[11] = second compound 1 µM, first compound 0.0949 µM
[12] = second compound 1 µM, first compound 0.3 µM
[13] = second compound 3.16 µM, first compound 0.00949 µM
[14] = second compound 3.16 µM, first compound 0.03 µM
[15] = second compound 3.16 µM, first compound 0.0949 µM
[16] = second compound 3.16 µM, first compound 0.3 µM
[17] = second compound 10 µM, first compound 0.00949 µM
[18] = second compound 10 µM, first compound 0.03 µM
[19] = second compound 10 µM, first compound 0.0949 µM
[20] = second compound 10 µM, first compound 0.3 µM
[21] = second compound 0.1 µM, first compound 0.0316 µM
[22] = second compound 0.1 µM, first compound 0.1 µM
[23] = second compound 0.1 µM, first compound 0.316 µM
[24] = second compound 0.1 µM, first compound 1 µM
[25] = second compound 0.1 µM, first compound 3.16 µM
[26] = second compound 0.1 µM, first compound 10 µM
[27] = second compound 0.316 µM, first compound 0.0316 µM
[28] = second compound 0.316 µM, first compound 0.1 µM
[29] = second compound 0.316 µM, first compound 0.316 µM
[30] = second compound 0.316 µM, first compound 1 µM
[31] = second compound 0.316 µM, first compound 3.16 µM
[32] = second compound 0.316 µM, first compound 10 µM
[33] = second compound 1 µM, first compound 0.0316 µM
[34] = second compound 1 µM, first compound 0.1 µM
[35] = second compound 1 µM, first compound 0.316 µM
[36] = second compound 1 µM, first compound 1 µM
[37] = second compound 1 µM, first compound 3.16 µM
[38] = second compound 1 µM, first compound 10 µM
[39] = second compound 3.16 µM, first compound 0.0316 µM
[40] = second compound 3.16 µM, first compound 0.1 µM
[41] = second compound 3.16 µM, first compound 0.316 µM
[42] = second compound 3.16 µM, first compound 1 µM
[43] = second compound 3.16 µM, first compound 3.16 µM
[44] = second compound 3.16 µM, first compound 10 µM
[45] = second compound 10 µM, first compound 0.0316 µM
[46] = second compound 10 µM, first compound 0.1 µM
[47] = second compound 10 µM, first compound 0.316 µM
[48] = second compound 10 µM, first compound 1 µM
[49] = second compound 10 µM, first compound 3.16 µM
[50] = second compound 10 µM, first compound 10 µM

- IC50 (second compound 0.1 µM): > 3000 nM
- IC50 (second compound 0.316 µM): > 3000 nM
- IC50 (second compound 1 µM): > 3000 nM
- IC50 (second compound 3.16 µM): > 3000 nM
- IC50 (second compound 10 µM): < 9.49 nM
Compound: CCN(c1cc(-c2ccc(CN3CCOCC3)cc2)cc(C(=O)NCc2c(C)cc(C)[nH]c2=O)c1C)C1CCOCC1 + Cc1cncc(-c2nc(NCCc3c[nH]c4ccccc34)c3ncn(C(C)C)c3n2)c1
- viability, T/C [1]: 72.4%
- viability, T/C [2]: 91.7%
- viability, T/C [3]: 68.9%
- viability, T/C [4]: 70.9%
- viability, T/C (second compound 0.1 µM, first compound 0.949 µM): 74.5%
- viability, T/C (second compound 0.1 µM, first compound 3 µM): 63.9%
- viability, T/C [5]: 97.3%
- viability, T/C [6]: 82.3%
- viability, T/C [7]: 89%
- viability, T/C [8]: 76.1%
- viability, T/C (second compound 0.316 µM, first compound 0.949 µM): 85%
- viability, T/C (second compound 0.316 µM, first compound 3 µM): 76.8%
- viability, T/C [9]: 69.5%
- viability, T/C [10]: 86.7%
- viability, T/C [11]: 69.8%
- viability, T/C [12]: 72%
- viability, T/C (second compound 1 µM, first compound 0.949 µM): 65%
- viability, T/C (second compound 1 µM, first compound 3 µM): 57.5%
- viability, T/C [13]: 66.1%
- viability, T/C [14]: 77.3%
- viability, T/C [15]: 66.4%
- viability, T/C [16]: 67.3%
- viability, T/C (second compound 3.16 µM, first compound 0.949 µM): 56.7%
- viability, T/C (second compound 3.16 µM, first compound 3 µM): 54.4%
- viability, T/C [17]: 40.6%
- viability, T/C [18]: 41.7%
- viability, T/C [19]: 44.1%
- viability, T/C [20]: 33.4%
- viability, T/C (second compound 10 µM, first compound 0.949 µM): 34.4%
- viability, T/C (second compound 10 µM, first compound 3 µM): 32.5%

- IC50 (second compound 0.1 µM): > 10000 nM
- IC50 (second compound 0.316 µM): > 10000 nM
- IC50 (second compound 1 µM): > 10000 nM
- IC50 (second compound 3.16 µM): > 10000 nM
- IC50 (second compound 10 µM): < 31.6 nM
Compound: O=C(c1cc(Cc2n[nH]c(=O)c3ccccc23)ccc1F)N1CCN(C(=O)C2CC2)CC1 + Cc1cncc(-c2nc(NCCc3c[nH]c4ccccc34)c3ncn(C(C)C)c3n2)c1
- viability, T/C [21]: 87.6%
- viability, T/C [22]: 80.9%
- viability, T/C [23]: 82.1%
- viability, T/C [24]: 85.5%
- viability, T/C [25]: 76.7%
- viability, T/C [26]: 61.7%
- viability, T/C [27]: 72.7%
- viability, T/C [28]: 91.4%
- viability, T/C [29]: 64.4%
- viability, T/C [30]: 77.5%
- viability, T/C [31]: 74.1%
- viability, T/C [32]: 63%
- viability, T/C [33]: 88.3%
- viability, T/C [34]: 61.2%
- viability, T/C [35]: 70.8%
- viability, T/C [36]: 79.3%
- viability, T/C [37]: 71%
- viability, T/C [38]: 62.7%
- viability, T/C [39]: 57.5%
- viability, T/C [40]: 61.1%
- viability, T/C [41]: 60.6%
- viability, T/C [42]: 62%
- viability, T/C [43]: 68.1%
- viability, T/C [44]: 51.4%
- viability, T/C [45]: 19.4%
- viability, T/C [46]: 19.5%
- viability, T/C [47]: 19.6%
- viability, T/C [48]: 21.3%
- viability, T/C [49]: 21.2%
- viability, T/C [50]: 22.1%

- IC50 (second compound 0.1 µM): 144 nM
- IC50 (second compound 0.316 µM): 204 nM
- IC50 (second compound 1 µM): 187 nM
- IC50 (second compound 3.16 µM): 133 nM
- IC50 (second compound 10 µM): 52.3 nM
Compound: Nc1ccccc1NC(=O)c1ccc(CNC(=O)OCc2cccnc2)cc1 + CC(CO)NC(=O)c1cc(-c2ccc(Cl)cc2)nn(-c2cnn(C)c2)c1=O
- viability, T/C [21]: 66.7%
- viability, T/C [22]: 58.1%
- viability, T/C [23]: 34.4%
- viability, T/C [24]: 14.8%
- viability, T/C [25]: 6.51%
- viability, T/C [26]: 0.25%
- viability, T/C [27]: 74.3%
- viability, T/C [28]: 60.1%
- viability, T/C [29]: 45%
- viability, T/C [30]: 15.6%
- viability, T/C [31]: 6.91%
- viability, T/C [32]: 0.6%
- viability, T/C [33]: 60.9%
- viability, T/C [34]: 64%
- viability, T/C [35]: 40%
- viability, T/C [36]: 16.7%
- viability, T/C [37]: 8.93%
- viability, T/C [38]: 0.42%
- viability, T/C [39]: 63.4%
- viability, T/C [40]: 57.3%
- viability, T/C [41]: 31.3%
- viability, T/C [42]: 12.1%
- viability, T/C [43]: 6.39%
- viability, T/C [44]: 0.79%
- viability, T/C [45]: 56.6%
- viability, T/C [46]: 41.3%
- viability, T/C [47]: 26.4%
- viability, T/C [48]: 12.6%
- viability, T/C [49]: 4.04%
- viability, T/C [50]: 0.25%

- IC50 (second compound 0.1 µM): 165 nM
- IC50 (second compound 0.316 µM): 281 nM
- IC50 (second compound 1 µM): 263 nM
- IC50 (second compound 3.16 µM): 236 nM
- IC50 (second compound 10 µM): 17.4 nM
Compound: Nc1ncn(C2CC(O)C(CO)S2)c(=O)n1 (stereo not given) + Cc1ccccc1N=Nc1ccc(NC(=O)c2ccnn2C)c(C)c1
- viability, T/C (second compound 0.1 µM, first compound 0.000949 µM): 71.8%
- viability, T/C (second compound 0.1 µM, first compound 0.003 µM): 84.3%
- viability, T/C [1]: 83.3%
- viability, T/C [2]: 65%
- viability, T/C [3]: 61.3%
- viability, T/C [4]: 40%
- viability, T/C (second compound 0.316 µM, first compound 0.000949 µM): 78.8%
- viability, T/C (second compound 0.316 µM, first compound 0.003 µM): 95%
- viability, T/C [5]: 93.2%
- viability, T/C [6]: 87.7%
- viability, T/C [7]: 78%
- viability, T/C [8]: 48.1%
- viability, T/C (second compound 1 µM, first compound 0.000949 µM): 78.2%
- viability, T/C (second compound 1 µM, first compound 0.003 µM): 85.8%
- viability, T/C [9]: 84.9%
- viability, T/C [10]: 81.3%
- viability, T/C [11]: 74.1%
- viability, T/C [12]: 46.8%
- viability, T/C (second compound 3.16 µM, first compound 0.000949 µM): 88%
- viability, T/C (second compound 3.16 µM, first compound 0.003 µM): 62.4%
- viability, T/C [13]: 66%
- viability, T/C [14]: 69.6%
- viability, T/C [15]: 62.6%
- viability, T/C [16]: 43.8%
- viability, T/C (second compound 10 µM, first compound 0.000949 µM): 51.4%
- viability, T/C (second compound 10 µM, first compound 0.003 µM): 54.6%
- viability, T/C [17]: 53%
- viability, T/C [18]: 45.8%
- viability, T/C [19]: 45.2%
- viability, T/C [20]: 34.9%

- IC50 (second compound 0.1 µM): < 31.6 nM
- IC50 (second compound 0.316 µM): < 31.6 nM
- IC50 (second compound 1 µM): < 31.6 nM
- IC50 (second compound 3.16 µM): < 31.6 nM
- IC50 (second compound 10 µM): < 31.6 nM
Compound: Nc1ccn(C2OC(CO)C(O)C2(F)F)c(=O)n1 (stereo not given) + Cc1cncc(-c2nc(NCCc3c[nH]c4ccccc34)c3ncn(C(C)C)c3n2)c1
- viability, T/C [21]: 28.4%
- viability, T/C [22]: 28.2%
- viability, T/C [23]: 25.5%
- viability, T/C [24]: 25.2%
- viability, T/C [25]: 27.6%
- viability, T/C [26]: 20.8%
- viability, T/C [27]: 30.6%
- viability, T/C [28]: 28.5%
- viability, T/C [29]: 25.9%
- viability, T/C [30]: 25.6%
- viability, T/C [31]: 22.7%
- viability, T/C [32]: 21.5%
- viability, T/C [33]: 29.2%
- viability, T/C [34]: 31.7%
- viability, T/C [35]: 27.9%
- viability, T/C [36]: 26.4%
- viability, T/C [37]: 24.3%
- viability, T/C [38]: 20.9%
- viability, T/C [39]: 32.8%
- viability, T/C [40]: 27.1%
- viability, T/C [41]: 28.5%
- viability, T/C [42]: 27%
- viability, T/C [43]: 26.8%
- viability, T/C [44]: 21.6%
- viability, T/C [45]: 36.6%
- viability, T/C [46]: 23.7%
- viability, T/C [47]: 28.9%
- viability, T/C [48]: 27.3%
- viability, T/C [49]: 30.8%
- viability, T/C [50]: 23.1%

Reference: PubChem BioAssay AID1919014 (Molecular Pharmacology Branch, DTP, NCI, 2023)
